Assay results reported in ChEMBL document CHEMBL2413072, “Synthesis and in vitro anticancer studies of novel C-2 arylidene congeners of lantadenes” (2013).

How the values were obtained:
Assay type in all cases: functional
DU-145 = assay: Growth inhibition of human DU145 cells by sulforhodamine B assay
NCI-H522 = assay: Growth inhibition of human NCI-H522 cells assessed as cell growth at 10^-6 M by sulforhodamine B assay; conditions: read-out: Activity
Malme-3M = assay: Growth inhibition of human MALME-3M cells assessed as cell growth at 10^-6 M by sulforhodamine B assay; conditions: read-out: Activity
SN12C = assay: Growth inhibition of human SN12C cells assessed as cell growth at 10^-4 M by sulforhodamine B assay; conditions: read-out: Activity
[1] = Growth inhibition of human Hs 578T cells assessed as cell growth at 10^-4 M by sulforhodamine B assay; conditions: read-out: Activity
MOLT-4 = assay: Growth inhibition of human MOLT4 cells assessed as cell growth at 10^-6 M by sulforhodamine B assay; conditions: read-out: Activity
OVCAR-8 [2] = assay: Growth inhibition of human OVCAR8 cells by sulforhodamine B assay
NCI-H322M = assay: Growth inhibition of human NCI-H322M cells by sulforhodamine B assay
SK-OV-3 [3] = assay: Growth inhibition of human SKOV3 cells by sulforhodamine B assay
LOX IMVI = assay: Growth inhibition of human LOXIMVI cells assessed as cell growth at 10^-8 M by sulforhodamine B assay; conditions: read-out: Activity
SNB-19 [4] = assay: Growth inhibition of human SNB19 cells assessed as cell growth at 10^-6 M by sulforhodamine B assay; conditions: read-out: Activity
UACC-257 [5] = assay: Growth inhibition of human UACC257 cells by sulforhodamine B assay
HOP-92 [6] = assay: Growth inhibition of human HOP92 cells assessed as cell growth at 10^-8 M by sulforhodamine B assay; conditions: read-out: Activity
OVCAR-3 = assay: Growth inhibition of human OVCAR3 cells assessed as cell growth at 10^-6 M by sulforhodamine B assay; conditions: read-out: Activity
[7] = Growth inhibition of human HCC2998 cells assessed as cell growth at 10^-4 M by sulforhodamine B assay; conditions: HCC 2998, read-out: Activity
PC-3 = assay: Growth inhibition of human PC3 cells assessed as cell growth at 10^-4 M by sulforhodamine B assay; conditions: read-out: Activity
SNB-19 [8] = assay: Growth inhibition of human SNB19 cells by sulforhodamine B assay
NCI-H460 = assay: Growth inhibition of human NCI-H460 cells by sulforhodamine B assay
SK-MEL-2 = assay: Growth inhibition of human SK-MEL-2 cells assessed as cell growth at 10^-4 M by sulforhodamine B assay; conditions: read-out: Activity
RXF 393 = assay: Growth inhibition of human RXF393 cells assessed as cell growth at 10^-7 M by sulforhodamine B assay; conditions: read-out: Activity
A498 = assay: Growth inhibition of human A498 cells by sulforhodamine B assay
T47D = assay: Growth inhibition of human T47D cells assessed as cell growth at 10^-4 M by sulforhodamine B assay; conditions: read-out: Activity
SF-268 = assay: Growth inhibition of human SF268 cells assessed as cell growth at 10^-8 M by sulforhodamine B assay; conditions: read-out: Activity
HOP-92 [9] = assay: Growth inhibition of human HOP92 cells assessed as cell growth at 10^-7 M by sulforhodamine B assay; conditions: read-out: Activity
SF-295 = assay: Growth inhibition of human SF295 cells assessed as cell growth at 10^-7 M by sulforhodamine B assay; conditions: read-out: Activity
UACC-257 [10] = assay: Growth inhibition of human UACC257 cells assessed as cell growth at 10^-6 M by sulforhodamine B assay; conditions: read-out: Activity
KM12 = assay: Growth inhibition of human KM12 cells by sulforhodamine B assay
OVCAR-5 = assay: Growth inhibition of human OVCAR5 cells assessed as cell growth at 10^-8 M by sulforhodamine B assay; conditions: read-out: Activity
SK-OV-3 [11] = assay: Growth inhibition of human SKOV3 cells assessed as cell growth at 10^-7 M by sulforhodamine B assay; conditions: read-out: Activity
[12] = Growth inhibition of human HCC2998 cells assessed as cell growth at 10^-7 M by sulforhodamine B assay; conditions: HCC 2998, read-out: Activity
OVCAR-8 [13] = assay: Growth inhibition of human OVCAR8 cells assessed as cell growth at 10^-7 M by sulforhodamine B assay; conditions: read-out: Activity
MDA-MB-231 [14] = assay: Growth inhibition of human MDA-MB-231 cells assessed as cell growth at 10^-8 M by sulforhodamine B assay; conditions: read-out: Activity
HCT-116 = assay: Growth inhibition of human HCT116 cells by sulforhodamine B assay
CAKI-1 = assay: Growth inhibition of human CAKI-1 cells assessed as cell growth at 10^-4 M by sulforhodamine B assay; conditions: read-out: Activity
HOP-62 = assay: Growth inhibition of human HOP62 cells assessed as cell growth at 10^-4 M by sulforhodamine B assay; conditions: read-out: Activity
BT-549 = assay: Growth inhibition of human BT549 cells assessed as cell growth at 10^-7 M by sulforhodamine B assay; conditions: read-out: Activity
MDA-MB-231 [15] = assay: Growth inhibition of human MDA-MB-231 cells assessed as cell growth at 10^-4 M by sulforhodamine B assay; conditions: read-out: Activity
SK-MEL-28 = assay: Growth inhibition of human SK-MEL-28 cells assessed as cell growth at 10^-6 M by sulforhodamine B assay; conditions: read-out: Activity
[16] = read-out: LC50 (the source's name)
[17] = read-out: pLC50 (the source's name) (converted)

Work on `CC1(C)C[C@@H](O)[C@]2(C(=O)O)CC[C@]3(C)C(=CC[C@@H]4[C@@]5(C)C/C(=C\C=C\c6ccccc6)C(=O)C(C)(C)[C@@H]5CC[C@]43C)[C@@H]2C1` yielded a GI50 (DU-145; read-out: GI50) of 4.23 µM, a CC50 (DU-145; [16]) of 41.7 µM and a TGI (DU-145; read-out: TGI) of 14.9 µM. It also gave a GI50 (DU-145; read-out: pGI50 (converted)) of 4.27 µM, a CC50 (DU-145; [17]) of 41.7 µM and a TGI (DU-145; read-out: pTGI (converted)) of 14.8 µM. It also gave a growth at 1 µM (NCI-H522) of 94%, a growth at 1 µM (Malme-3M) of 96% and a growth at 100 µM (SN12C) of -92%. For the same molecule, the growth at 100 µM [1] was -35%, the growth at 1 µM (MOLT-4) was 89% and the GI50 (OVCAR-8 [2]; read-out: GI50) was 3.41 µM. It also gave a CC50 (OVCAR-8 [2]; [16]) of 60.8 µM, a TGI (OVCAR-8 [2]; read-out: TGI) of 14.2 µM and a GI50 (OVCAR-8 [2]; read-out: pGI50 (converted)) of 3.39 µM. It also gave a CC50 (OVCAR-8 [2]; [17]) of 60.3 µM, a TGI (OVCAR-8 [2]; read-out: pTGI (converted)) of 14.1 µM and a GI50 (NCI-H322M; read-out: GI50) of 3.45 µM. It also gave an LC50 (50% lethal concentration) (NCI-H322M; read-out: LC50) of 48.7 µM, a TGI (NCI-H322M; read-out: TGI) of 13.7 µM and a GI50 (NCI-H322M; read-out: pGI50 (converted)) of 3.47 µM. It also gave an LC50 (50% lethal concentration) (NCI-H322M; read-out: pLC50 (converted)) of 49 µM, a TGI (NCI-H322M; read-out: pTGI (converted)) of 13.8 µM and a GI50 (SK-OV-3 [3]; read-out: GI50) of 3.81 µM. The CC50 (SK-OV-3 [3]; [16]) was 46.4 µM, the TGI (SK-OV-3 [3]; read-out: TGI) was 14.8 µM and the GI50 (SK-OV-3 [3]; read-out: pGI50 (converted)) was 3.8 µM. The CC50 (SK-OV-3 [3]; [17]) was 46.8 µM, the TGI (SK-OV-3 [3]; read-out: pTGI (converted)) was 14.8 µM and the growth at 0.01 µM (LOX IMVI) was 97%. For the same molecule, the growth at 1 µM (SNB-19 [4]) was 88%, the GI50 (UACC-257 [5]; read-out: GI50) was 2.62 µM and the CC50 (UACC-257 [5]; [16]) was 35.1 µM. For the same molecule, the TGI (UACC-257 [5]; read-out: TGI) was 9.01 µM, the GI50 (UACC-257 [5]; read-out: pGI50 (converted)) was 2.63 µM and the CC50 (UACC-257 [5]; [17]) was 35.5 µM. For the same molecule, the TGI (UACC-257 [5]; read-out: pTGI (converted)) was 8.91 µM, the growth at 0.01 µM (HOP-92 [6]) was 99% and the growth at 1 µM (OVCAR-3) was 92%. It also gave a growth at 100 µM [7] of -93%, a growth at 100 µM (PC-3) of -67% and a GI50 (SNB-19 [8]; read-out: GI50) of 4.03 µM. For the same molecule, the CC50 (SNB-19 [8]; [16]) was 44.5 µM, the TGI (SNB-19 [8]; read-out: TGI) was 16.5 µM and the GI50 (SNB-19 [8]; read-out: pGI50 (converted)) was 4.07 µM. The CC50 (SNB-19 [8]; [17]) was 44.7 µM, the TGI (SNB-19 [8]; read-out: pTGI (converted)) was 16.6 µM and the GI50 (NCI-H460; read-out: GI50) was 2.67 µM. It also gave an LC50 (NCI-H460; read-out: LC50) of 44.1 µM, a TGI (NCI-H460; read-out: TGI) of 7.6 µM and a GI50 (NCI-H460; read-out: pGI50 (converted)) of 2.69 µM. It also gave an LC50 (NCI-H460; read-out: pLC50 (converted)) of 43.7 µM, a TGI (NCI-H460; read-out: pTGI (converted)) of 7.59 µM and a growth at 100 µM (SK-MEL-2) of -72%. The growth at 0.1 µM (RXF 393) was 94%, the GI50 (A498; read-out: GI50) was 2.55 µM and the CC50 (A498; [16]) was 35.2 µM. For the same molecule, the TGI (A498; read-out: TGI) was 11.6 µM, the GI50 (A498; read-out: pGI50 (converted)) was 2.57 µM and the CC50 (A498; [17]) was 35.5 µM. For the same molecule, the TGI (A498; read-out: pTGI (converted)) was 11.5 µM, the growth at 100 µM (T47D) was -45% and the growth at 0.01 µM (SF-268) was 93%. For the same molecule, the growth at 0.1 µM (HOP-92 [9]) was 90%, the growth at 0.1 µM (SF-295) was 98% and the growth at 1 µM (UACC-257 [10]) was 89%. For the same molecule, the GI50 (KM12; read-out: GI50) was 3.01 µM, the LC50 (50% net cell kill) (KM12; read-out: LC50) was 47.2 µM and the TGI (KM12; read-out: TGI) was 11.2 µM. The GI50 (KM12; read-out: pGI50 (converted)) was 3.02 µM, the LC50 (50% net cell kill) (KM12; read-out: pLC50 (converted)) was 46.8 µM and the TGI (KM12; read-out: pTGI (converted)) was 11.2 µM. For the same molecule, the growth at 0.01 µM (OVCAR-5) was 103%, the growth at 0.1 µM (SK-OV-3 [11]) was 102% and the growth at 0.1 µM [12] was 97%. For the same molecule, the growth at 0.1 µM (OVCAR-8 [13]) was 97%, the growth at 0.01 µM (MDA-MB-231 [14]) was 108% and the GI50 (HCT-116; read-out: GI50) was 2.89 µM. It also gave an LC50 (HCT-116; read-out: LC50) of 82.7 µM, a TGI (HCT-116; read-out: TGI) of 11.2 µM and a GI50 (HCT-116; read-out: pGI50 (converted)) of 2.88 µM. For the same molecule, the LC50 (HCT-116; read-out: pLC50 (converted)) was 83.2 µM, the TGI (HCT-116; read-out: pTGI (converted)) was 11.2 µM and the growth at 100 µM (CAKI-1) was -49%. It also gave a growth at 100 µM (HOP-62) of -57%, a growth at 0.1 µM (BT-549) of 103% and a growth at 100 µM (MDA-MB-231 [15]) of -93%. For the same molecule, the growth at 1 µM (SK-MEL-28) was 97%.
